Experimental data from ChEMBL document CHEMBL1201862, “PubChem BioAssay data set” (2004).
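In this assay, cells in 96-well plates receive the compound at five concentrations for 48 hours. Endpoints are linearly interpolated between the surrounding concentrations. GI50 = concentration required for 50% inhibition of growth.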 Activity calls are given as the source filed them. No stated cut-off is given here; in the data, active = GI50 up to about 1.1 µM and inactive = higher.

Tests used:
Test in all cases: NCI-60 cell line screen, 48 h
[1] = test system: TK-10
[2] = test system: MDA-MB-435
[3] = test system: UO-31
[4] = test system: SNB-75
[5] = test system: SK-OV-3
[6] = test system: ACHN
[7] = test system: SW-620
[8] = test system: SF-295
[9] = test system: SK-MEL-28
[10] = test system: NCI-H522
[11] = test system: NCI-H226
[12] = test system: A498
[13] = test system: SR
[14] = test system: RXF 393
[15] = test system: DU-145
[16] = test system: OVCAR-4
[17] = test system: IGROV-1
[18] = test system: PC-3
[19] = test system: A549
[20] = test system: 786-0
[21] = test system: UACC-257
[22] = test system: SN12C
[23] = test system: Malme-3M
[24] = test system: CCRF-CEM
[25] = test system: HCT-116
[26] = test system: EKVX
[27] = test system: CAKI-1
[28] = test system: NCI-H23
[29] = test system: LOX IMVI
[30] = test system: NCI-H460
[31] = test system: SK-MEL-2
[32] = test system: SK-MEL-5
[33] = test system: COLO 205
[34] = test system: SNB-19
[35] = test system: Hs-578T
[36] = test system: SF-539
[37] = test system: OVCAR-3
[38] = test system: SF-268
[39] = test system: BT-549
[40] = test system: KM12
[41] = test system: MCF7
[42] = test system: U-251
[43] = test system: M14
[44] = test system: K562
[45] = test system: HT-29
[46] = test system: MOLT-4
[47] = test system: MDA-N
[48] = test system: MDA-MB-231
[49] = test system: RPMI-8226
[50] = test system: UACC-62
[51] = test system: OVCAR-5
[52] = test system: HOP-92
[53] = test system: HL-60
[54] = test system: T47D
[55] = test system: OVCAR-8
[56] = test system: HCT-15
[57] = test system: NCI/ADR-RES
[58] = test system: HOP-62

Compound: CN(C)CCN1C(=O)CC[C@@]2(C)C1=CC[C@@H]1[C@@H]2CC[C@@]2(C)[C@H]1CC[C@]2(C)O
- GI50 [1]: > 100 µM (inactive)
- GI50 [2]: > 100 µM (inactive)
- GI50 [3]: > 100 µM (inactive)
- GI50 [4]: > 100 µM (inactive)
- GI50 [5]: > 100 µM (inactive)
- GI50 [6]: > 100 µM (inactive)
- GI50 [7]: > 100 µM (inactive)
- GI50 [8]: > 100 µM (inactive)
- GI50 [9]: > 100 µM (inactive)
- GI50 [10]: > 100 µM (inactive)
- GI50 [11]: > 100 µM (inactive)
- GI50 [12]: > 100 µM (inactive)
- GI50 [13]: > 100 µM (inactive)
- GI50 [14]: > 100 µM (inactive)
- GI50 [15]: > 100 µM (inactive)
- GI50 [16]: > 100 µM (inactive)
- GI50 [17]: > 100 µM (inactive)
- GI50 [18]: > 100 µM (inactive)
- GI50 [19]: > 100 µM (inactive)
- GI50 [20]: > 100 µM (inactive)
- GI50 [21]: > 100 µM (inactive)
- GI50 [22]: > 100 µM (inactive)
- GI50 [23]: > 100 µM (inactive)
- GI50 [24]: > 100 µM (inactive)
- GI50 [25]: 71.6 µM (inactive)
- GI50 [26]: > 100 µM (inactive)
- GI50 [27]: > 100 µM (inactive)
- GI50 [28]: > 100 µM (inactive)
- GI50 [29]: > 100 µM (inactive)
- GI50 [30]: > 100 µM (inactive)
- GI50 [31]: > 100 µM (inactive)
- GI50 [32]: > 100 µM (inactive)
- GI50 [33]: > 100 µM (inactive)
- GI50 [34]: > 100 µM (inactive)
- GI50 [35]: > 100 µM (inactive)
- GI50 [36]: > 100 µM (inactive)
- GI50 [37]: > 100 µM (inactive)
- GI50 [38]: > 100 µM (inactive)
- GI50 [39]: > 100 µM (inactive)
- GI50 [40]: > 100 µM (inactive)
- GI50 [41]: > 100 µM (inactive)
- GI50 [42]: > 100 µM (inactive)
- GI50 [43]: > 100 µM (inactive)
- GI50 [44]: > 100 µM (inactive)
- GI50 [45]: 39.8 µM (inactive)
- GI50 [46]: > 100 µM (inactive)
- GI50 [47]: > 100 µM (inactive)
- GI50 [48]: > 100 µM (inactive)
- GI50 [49]: > 100 µM (inactive)
- GI50 [50]: > 100 µM (inactive)
- GI50 [51]: > 100 µM (inactive)
- GI50 [52]: > 100 µM (inactive)
- GI50 [53]: > 100 µM (inactive)
- GI50 [54]: > 100 µM (inactive)
- GI50 [55]: > 100 µM (inactive)
- GI50 [56]: > 100 µM
- GI50 [57]: > 100 µM (inactive)
- GI50 [58]: > 100 µM (inactive)

Compound: CC(=O)Oc1ccc(-c2nnc(-c3ccc(OC(C)=O)cc3)nn2)cc1
- GI50 [1]: > 100 µM (inactive)
- GI50 [2]: > 100 µM (inactive)
- GI50 [3]: 64 µM (inactive)
- GI50 [4]: > 100 µM (inactive)
- GI50 [5]: > 100 µM (inactive)
- GI50 [6]: 59 µM (inactive)
- GI50 [7]: > 100 µM (inactive)
- GI50 [8]: > 100 µM (inactive)
- GI50 [9]: > 100 µM (inactive)
- GI50 [10]: > 100 µM (inactive)
- GI50 [11]: > 100 µM (inactive)
- GI50 [12]: > 100 µM (inactive)
- GI50 [13]: 20.4 µM (inactive)
- GI50 [14]: > 100 µM (inactive)
- GI50 [15]: > 100 µM (inactive)
- GI50 [16]: > 100 µM (inactive)
- GI50 [17]: > 100 µM (inactive)
- GI50 [18]: > 100 µM (inactive)
- GI50 [19]: > 100 µM (inactive)
- GI50 [20]: > 100 µM (inactive)
- GI50 [21]: > 100 µM (inactive)
- GI50 [22]: > 100 µM (inactive)
- GI50 [23]: > 100 µM (inactive)
- GI50 [24]: 40.6 µM (inactive)
- GI50 [25]: > 100 µM (inactive)
- GI50 [26]: 70.5 µM (inactive)
- GI50 [27]: > 100 µM (inactive)
- GI50 [28]: > 100 µM (inactive)
- GI50 [29]: > 100 µM (inactive)
- GI50 [30]: > 100 µM (inactive)
- GI50 [31]: > 100 µM (inactive)
- GI50 [32]: > 100 µM (inactive)
- GI50 [33]: > 100 µM (inactive)
- GI50 [34]: > 100 µM (inactive)
- GI50 [35]: > 100 µM (inactive)
- GI50 [36]: > 100 µM (inactive)
- GI50 [37]: > 100 µM (inactive)
- GI50 [38]: > 100 µM (inactive)
- GI50 [39]: > 100 µM (inactive)
- GI50 [40]: > 100 µM (inactive)
- GI50 [41]: > 100 µM (inactive)
- GI50 [42]: > 100 µM (inactive)
- GI50 [43]: > 100 µM (inactive)
- GI50 [44]: 55.5 µM (inactive)
- GI50 [45]: > 100 µM (inactive)
- GI50 [46]: > 100 µM (inactive)
- GI50 [47]: > 100 µM (inactive)
- GI50 [48]: > 100 µM (inactive)
- GI50 [49]: > 100 µM (inactive)
- GI50 [50]: > 100 µM (inactive)
- GI50 [51]: > 100 µM (inactive)
- GI50 [52]: > 100 µM (inactive)
- GI50 [53]: 29.8 µM (inactive)
- GI50 [54]: > 100 µM (inactive)
- GI50 [55]: > 100 µM (inactive)
- GI50 [56]: 51.4 µM
- GI50 [57]: 38.8 µM (inactive)
- GI50 [58]: > 100 µM (inactive)
